These results are taken from US10040805B2, “Substituted imidazo[1,5-a]pyrazines as Btk inhibitors” (MERCK SHARP & DOHME CORP., priority 2014, dated 2018).

The structures appear in SMILES notation.

BTK enzyme (full-length BTK, hBTK), sequence (Q06187 whole entry): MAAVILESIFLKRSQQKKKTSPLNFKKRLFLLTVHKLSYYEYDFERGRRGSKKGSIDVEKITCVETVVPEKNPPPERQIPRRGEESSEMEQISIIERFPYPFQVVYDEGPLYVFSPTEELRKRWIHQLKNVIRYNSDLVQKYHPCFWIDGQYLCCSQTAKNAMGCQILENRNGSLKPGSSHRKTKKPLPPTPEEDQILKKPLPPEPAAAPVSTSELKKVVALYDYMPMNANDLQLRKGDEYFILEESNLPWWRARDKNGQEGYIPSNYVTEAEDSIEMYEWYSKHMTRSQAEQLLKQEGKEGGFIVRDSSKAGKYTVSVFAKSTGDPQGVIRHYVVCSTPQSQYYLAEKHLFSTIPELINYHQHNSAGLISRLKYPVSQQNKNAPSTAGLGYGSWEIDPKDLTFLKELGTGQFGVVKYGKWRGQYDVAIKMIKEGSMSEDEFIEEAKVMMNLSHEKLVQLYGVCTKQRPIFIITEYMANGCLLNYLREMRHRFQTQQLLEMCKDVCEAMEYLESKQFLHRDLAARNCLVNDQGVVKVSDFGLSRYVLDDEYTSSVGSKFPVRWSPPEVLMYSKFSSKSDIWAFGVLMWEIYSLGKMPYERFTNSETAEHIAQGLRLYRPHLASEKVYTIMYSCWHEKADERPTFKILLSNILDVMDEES

This assay has as its target BTK enzyme (full-length BTK, hBTK) (Homo sapiens (Human), UniProt Q06187). Description: Btk enzyme activity assay, LANCE TR-FRET. Type of assay: biochemical. The conditions noted are these: 50 pM hBTK, 2 μM biotin-A5-peptide, 25 μM ATP, 60 minute compound & enzyme incubation, read-out: BTK binding IC50. The procedure:
BTK enzymatic activity was determined with the LANCE (Lanthanide Chelate Excite) TR-FRET (Time-resolved fluorescence resonance energy transfer) assay. In this assay, the potency (IC50) of each compound was determined from an eleven point (1:3 serial dilution; final compound concentration range in assay from 1 μM to 0.017 nM) titration curve using the following outlined procedure. To each well of a black non-binding surface Corning 384-well microplate (Corning Catalog #3820), 5 nL of compound (2000 fold dilution in final assay volume of 10 μL) was dispensed, followed by the addition of 7.5 μL of 1× kinase buffer (50 mM Hepes 7.5, 10 mM MgCl2, 0.01% Brij-35, 1 mM EGTA, 0.05% BSA & 1 mM DTT) containing 5.09 pg/μL (66.67 pM) of BTK enzyme (recombinant protein from baculovirus-transfected Sf9 cells: full-length BTK, 6HIS-tag cleaved). Following a 60 minute compound & enzyme incubation, each reaction was initiated by the addition of 2.5 μL 1× kinase buffer containing 8 μM biotinylated “A5” peptide (Biotin-EQEDEPEGDYFEWLE-NH2) (SEQ. ID. NO.: 1), and 100 μM ATP. The final reaction in each well of 10 μL consists of 50 pM hBTK, 2 μM biotin-A5-peptide, and 25 μM ATP. Phosphorylation reactions were allowed to proceed for 120 minutes. Reactions were immediately quenched by the addition of 20 uL of 1× quench buffer (15 mM EDTA, 25 mM Hepes 7.3, and 0.1% Triton X-100) containing detection reagents (0.626 nM of LANCE-Eu-W1024-anti-phosphoTyrosine antibody, PerkinElmer and 86.8 nM of Streptavidin-conjugated Dylight 650, Dyomics/ThermoFisher Scientific). After 60 minutes incubation with detection reagents, reaction plates were read on a PerkinElmer EnVision plate reader using standard TR-FRET protocol. Briefly, excitation of donor molecules (Eu-chelate:anti-phospho-antibody) with a laser light source at 337 nm produces energy that can be transferred to Dylight-650 acceptor molecules if this donor:acceptor pair is within close proximity. Fluorescence intensity at both 665 nm (acceptor) and 615 nm (donor) are measured and a TR-FRET ratio calculated for each well (acceptor intensity/donor intensity). IC50 values were determined by 4 parameter robust fit of TR-FRET ratio values vs. (Log10) compound concentrations.
For `CCOc1cc(C(=O)Nc2cc(C(F)(F)F)ccn2)ccc1-c1nc(C2(CC)CCC3CCN(CC)C(=O)N3C2)n2ccnc(N)c12` (single isomer, unassigned) [Example 5, 4-[8-amino-3-(2,7-diethyl-1-oxooctahydro-1H-pyrido[1,2-c]pyrimidin-7-yl)imidazo[1,5-a]pyrazin-1-yl]-3-ethoxy-N-[4-(trifluoromethyl)pyridin-2-yl] benzamide], the IC50 is 1000 nM. Under `CCOc1cc(C(=O)Nc2cc(C(F)(F)F)ccn2)ccc1-c1nc(C2(CC)CCC3CCN(CC)C(=O)N3C2)n2ccnc(N)c12` (single isomer, unassigned) [Example 6, 4-[8-amino-3-(2,7-diethyl-1-oxooctahydro-1H-pyrido[1,2-c]pyrimidin-7-yl)imidazo[1,5-a]pyrazin-1-yl]-3-ethoxy-N-[4-(trifluoromethyl)pyridin-2-yl] benzamide] stands 215 nM; under `CCOc1cc(C(=O)Nc2cc(C(F)(F)F)ccn2)ccc1-c1nc([C@@]2(C)CC[C@@H]3COC(=O)N3C2)n2ccnc(N)c12` [Example 1, 4-(8-amino-3-((6S,8aR)-6-methyl-3-oxohexahydro-1H-oxazolo[3,4-a]pyridin-6-yl)imidazo[1,5-a]pyrazin-1-yl)-3-ethoxy-N-(4-(trifluoromethyl)pyridin-2-yl)benzamide], 0.61 nM. As for `CCOc1cc(C(=O)Nc2cc(C(F)(F)F)n(C)n2)ccc1-c1nc([C@@]2(C)CC[C@@H]3COC(=O)N3C2)n2ccnc(N)c12` [Example 2, 4-(8-amino-3-((6S,8aR)-6-methyl-3-oxohexahydro-1H-oxazolo[3,4-a]pyridin-6-yl)imidazo[1,5-a]pyrazin-1-yl)-3-ethoxy-N-(1-methyl-5-(trifluoromethyl)-1H-pyrazol-3-yl)benzamide], the figure is 3.07 nM; as for `CCOc1cc(C(=O)Nc2cc(C(F)(F)F)ccn2)ccc1-c1nc([C@@]2(C)CC[C@@H]3CN(C(C)C)CC(=O)N3C2)n2ccnc(N)c12` [Example 3, 4-(8-amino-3-((7S,9aR)-2-isopropyl-7-methyl-4-oxooctahydro-1H-pyrido[1,2-a]pyrazin-7-yl)imidazo[1,5-a]pyrazin-1-yl)-3-ethoxy-N-(4-(trifluoromethyl)pyridin-2-yl)benzamide bis(2,2,2-trifluoroacetate)], 0.61 nM. As for `CCOc1cc(C(=O)Nc2cc(C(F)(F)F)n(C)n2)ccc1-c1nc([C@@]2(C)CC[C@@H]3CN(C(C)C)CC(=O)N3C2)n2ccnc(N)c12` [Example 4, 4-(8-amino-3-((7S,9aR)-2-isopropyl-7-methyl-4-oxooctahydro-1H-pyrido[1,2-a]pyrazin-7-yl)imidazo[1,5-a]pyrazin-1-yl)-3-ethoxy-N-(1-methyl-5-(trifluoromethyl)-1H-pyrazol-3-yl)benzamide bis(2,2,2-trifluoroacetate)], the figure is 2.5 nM; as for `CCOc1cc(C(=O)Nc2cc(C(F)(F)F)ccn2)ccc1-c1nc([C@]2(C)CC[C@H]3COC(=O)N3C2)n2ccnc(N)c12` [Example 7], 0.59 nM; as for `CCOc1cc(C(=O)Nc2cc(C(F)(F)F)n(C)n2)ccc1-c1nc([C@]2(C)CC[C@H]3COC(=O)N3C2)n2ccnc(N)c12` [Example 8, 4-{8-amino-3-[(6R,8aS)-6-methyl-3-oxohexahydro[1,3]oxazolo[3,4-a]pyridin-6-yl]imidazo[1,5-a]pyrazin-1-yl}-3-ethoxy-N-[1-methyl-5-(trifluoromethyl)-1H-pyrazol-3-yl]benzamide], 0.7 nM. `C[C@@]1(c2nc(-c3ccc(C(=O)Nc4cc(C(F)(F)F)ccn4)cc3F)c3c(N)nccn23)CC[C@H]2COC(=O)N2C1` [Example 9, 4-{8-amino-3-[(6R,8aS)-6-methyl-3-oxohexahydro[1,3]oxazolo[3,4-a]pyridin-6-yl]imidazo[1,5-a]pyrazin-1-yl}-3-fluoro-N-[4-(trifluoromethyl)pyridin-2-yl] benzamide]: the IC50 came out at 0.22 nM. Under `C[C@@]1(c2nc(-c3ccc(C(=O)Nc4cc(C5CC5)ccn4)cc3F)c3c(N)nccn23)CC[C@H]2COC(=O)N2C1` [Example 10, 4-{8-amino-3-[(6R,8aS)-6-methyl-3-oxohexahydro[1,3]oxazolo[3,4-a]pyridin-6-yl]imidazo[1,5-a]pyrazin-1-yl}-N-(4-cyclopropylpyridin-2-yl)-3-fluorobenzamide] stands 0.18 nM; under `CCOc1cc(C(=O)Nc2cc(C(F)(F)F)ccn2)cc(F)c1-c1nc([C@]2(C)CC[C@H]3COC(=O)N3C2)n2ccnc(N)c12` [Example 11, 4-{8-amino-3-[(6R,8aS)-6-methyl-3-oxohexahydro[1,3]oxazolo[3,4-a]pyridin-6-yl]imidazo[1,5-a]pyrazin-1-yl}-3-ethoxy-5-fluoro-N-[4-(trifluoromethyl)pyridin-2-yl] benzamide], 0.59 nM. As to `CCOc1cc(C(=O)Nc2cc(C(F)(F)F)ccn2)ccc1-c1nc(C2(C)CCC3CCN(C)C(=O)N3C2)n2ccnc(N)c12` (stereo not shown) [Example 12, 4-[8-amino-3-(2,7-dimethyl-1-oxooctahydro-1H-pyrido[1,2-c]pyrimidin-7-yl)imidazo[1,5-a]pyrazin-1-yl}-3-ethoxy-N-[4-(trifluoromethyl)pyridin-2-yl] benzamide], the IC50 was 411 nM.

As to `CCOc1cc(C(=O)Nc2cc(C(F)(F)F)ccn2)ccc1-c1nc(C2(C)CCC3CCN(C)C(=O)N3C2)n2ccnc(N)c12` (stereo not shown) [Example 13, 4-[8-amino-3-(2,7-dimethyl-1-oxooctahydro-1H-pyrido[1,2-c]pyrimidin-7-yl)imidazo[1,5-a]pyrazin-1-yl]-3-ethoxy-N-[4-(trifluoromethyl)pyridin-2-yl] benzamide], the IC50 is 10 nM. As for `CCOc1cc(C(=O)Nc2cc(C(F)(F)F)ccn2)ccc1-c1nc([C@]2(C)CC[C@H]3CN(C(C)C)CC(=O)N3C2)n2ccnc(N)c12` [Example 14, 4-{8-amino-3-[(7R,9aS)-7-methyl-2-(1-methylethyl)-4-oxooctahydro-2H-pyrido[1,2-a]pyrazin-7-yl]imidazo[1,5-a]pyrazin-1-yl}-3-ethoxy-N-[4-(trifluoromethyl)pyridin-2-yl] benzamide], the figure is 0.42 nM. In the case of `CCOc1cc(C(=O)Nc2cc(C(F)(F)F)n(C)n2)ccc1-c1nc([C@]2(C)CC[C@H]3CN(C(C)C)CC(=O)N3C2)n2ccnc(N)c12` [Example 15, 4-{8-amino-3-[(7R,9aS)-7-methyl-2-(1-methylethyl)-4-oxooctahydro-2H-pyrido[1,2-a]pyrazin-7-yl]imidazo[1,5-a]pyrazin-1-yl}-3-ethoxy-N-[1-methyl-5-(trifluoromethyl)-1H-pyrazol-3-yl]benzamide], the half-maximal inhibitory concentration (IC50) is 1.27 nM. As for `CCOc1cc(C(=O)Nc2cc(C(F)(F)F)n(C)n2)c(Cl)cc1-c1nc([C@]2(C)CC[C@H]3CN(C(C)C)CC(=O)N3C2)n2ccnc(N)c12` [Example 16, 4-{8-amino-3-[(7R,9aS)-7-methyl-2-(1-methylethyl)-4-oxooctahydro-2H-pyrido[1,2-a]pyrazin-7-yl]imidazo[1,5-a]pyrazin-1-yl}-2-chloro-5-ethoxy-N-[1-methyl-5-(trifluoromethyl)-1H-pyrazol-3-yl] benzamide], the figure is 3.41 nM; as for `C[C@@]1(c2nc(-c3ccc(C(=O)Nc4cc(C(F)(F)F)ccn4)cc3)c3c(N)nccn23)CC[C@H]2CCC(=O)N2C1` [Example 17, 4-(8-amino-3-((6R,8aS)-6-methyl-3-oxooctahydroindolizin-6-yl)imidazo[1,5-a]pyrazin-1-yl)-N-(4-(trifluoromethyl)pyridin-2-yl)benzamide], 0.18 nM. Under `CCOc1cc(C(=O)Nc2cc(C(F)(F)F)ccn2)ccc1-c1nc([C@]2(C)CC[C@H]3CCC(=O)N3C2)n2ccnc(N)c12` [Example 18, 4-(8-amino-3-((6R,8aS)-6-methyl-3-oxooctahydroindolizin-6-yl)imidazo[1,5-a]pyrazin-1-yl)-3-ethoxy-N-(4-(trifluoromethyl)pyridin-2-yl)benzamide] stands 0.44 nM; under `COc1cc(C(=O)Nc2cc(C(F)(F)F)ccn2)ccc1-c1nc([C@]2(C)CC[C@H]3CCC(=O)N3C2)n2ccnc(N)c12` [Example 19, 4-(8-amino-3-((6R,8aS)-6-methyl-3-oxooctahydroindolizin-6-yl)imidazo[1,5-a]pyrazin-1-yl)-3-methoxy-N-(4-(trifluoromethyl)pyridin-2-yl)benzamide], 0.33 nM.
